Among the test systems are ACHN renal; SF-539 CNS; A498 renal; HOP-92 NSCLC; HCC-2998 colon; T-47D breast; NCI-H460 lung; HOP-62 NSCLC; U251 CNS; PC-3 prostate.
Holding throughout (experiment): DTP human tumour cell line panel, 48 h

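A five-concentration, 48-hour dose response in 96-well plates underlies each endpoint, interpolated linearly between surrounding concentrations. The concentration for 50% growth inhibition is given as GI50. TGI marks complete inhibition of growth.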

One may read the TGI as the concentration giving total growth inhibition. Regarding `O=C(/C=C/c1ccc(O)cc1)c1ccc(O)cc1`, the TGI is above 74.3 µM in the assay on ACHN renal; 54.2 µM in the assay on SF-539 CNS; 65.1 µM in the assay with A498 renal; 76 µM in the assay with HOP-92 NSCLC; 52.7 µM with HCC-2998 colon; above 100 µM in the assay on T-47D breast. Further, the total growth inhibition concentration (TGI) was 72.5 µM with NCI-H460 lung, 49.1 µM in the assay with HOP-62 NSCLC, 46.6 µM in the assay on U251 CNS and above 100 µM with PC-3 prostate.
Usually GI50 stands for the concentration giving 50% growth inhibition. With `CCCCCCCCCCn1cc[n+](C)c1`, the GI50 in the assay with ACHN renal was 3.38 µM; in the assay with SF-539 CNS, 2.51 µM; in the assay with A498 renal, 0.383 µM; in the assay with HOP-92 NSCLC, 2.92 µM; in the assay on HCC-2998 colon, 1.56 µM; with T-47D breast it was 1.61 µM. The GI50 was 3.52 µM with NCI-H460 lung, 3.16 µM in the assay on HOP-62 NSCLC, 1.86 µM with U251 CNS and 1.03 µM in the assay with PC-3 prostate. The TGI was above 49.2 µM with ACHN renal; 13.5 µM in the assay with SF-539 CNS; 9.73 µM in the assay with A498 renal; 22.6 µM in the assay on HOP-92 NSCLC; 11.2 µM with HCC-2998 colon; above 21.7 µM in the assay with T-47D breast. Also, the TGI came to 19.2 µM in the assay on NCI-H460 lung, 17.5 µM in the assay on HOP-62 NSCLC, 19.1 µM in the assay with U251 CNS and 6.73 µM in the assay with PC-3 prostate.
For the compound `COc1ccc2nc(NC(=O)CSc3nnc4n3S(=O)(=O)c3ccccc3N4c3ccccc3)sc2c1`, the GI50 with ACHN renal was above 100 µM; in the assay with SF-539 CNS, above 100 µM; in the assay on A498 renal, above 100 µM; with HOP-92 NSCLC, 42.7 µM; with HCC-2998 colon, above 100 µM; in the assay on T-47D breast, above 100 µM. Also, the GI50 in the assay on NCI-H460 lung is above 100 µM; in the assay on HOP-62 NSCLC, 2.14 µM; with U251 CNS, 52.4 µM; with PC-3 prostate, above 100 µM. Moreover, the total growth inhibition concentration (TGI) with ACHN renal, with SF-539 CNS, in the assay on A498 renal, in the assay with HOP-92 NSCLC, in the assay with HCC-2998 colon and in the assay on T-47D breast was above 100 µM throughout. Also, the concentration for total growth inhibition (TGI) in the assay with NCI-H460 lung, with HOP-62 NSCLC, in the assay on U251 CNS and in the assay on PC-3 prostate was above 100 µM each time.
Regarding `COC[C@H]1Cn2cc(-c3nc(Nc4ccnn4C)ncc3C)nc2C(=O)N1Cc1ccc(F)c(F)c1`, the GI50 with ACHN renal was 12.6 µM; in the assay with SF-539 CNS, 27.1 µM; in the assay on A498 renal it was 0.0405 µM; with HOP-92 NSCLC, 0.21 µM; with HCC-2998 colon, 0.0673 µM; in the assay on T-47D breast, 65.5 µM. Further, the GI50 in the assay with NCI-H460 lung is 12.3 µM; in the assay on HOP-62 NSCLC, 1.15 µM; in the assay on PC-3 prostate, above 100 µM. Besides, the TGI with ACHN renal was above 100 µM; with SF-539 CNS it was above 100 µM; in the assay on A498 renal, 0.291 µM; with HOP-92 NSCLC, above 26.4 µM; in the assay on HCC-2998 colon it was above 100 µM; in the assay with T-47D breast it was above 100 µM. Further, the total growth inhibition concentration (TGI) in the assay with NCI-H460 lung, in the assay with HOP-62 NSCLC, with U251 CNS and in the assay with PC-3 prostate was above 100 µM in each case.
Consider `COc1cc(/C(C#N)=C/c2nc3c(N4CCOCC4)nc(Cl)nc3n2C)cc(OC)c1OC`, for which the GI50 in the assay with ACHN renal was below 0.01 µM; in the assay with SF-539 CNS it was below 0.01 µM; in the assay on A498 renal, below 0.01 µM; with HOP-92 NSCLC it was 0.158 µM; with HCC-2998 colon it was below 0.0157 µM; with NCI-H460 lung it was below 0.01 µM. The GI50 in the assay on HOP-62 NSCLC, with U251 CNS and in the assay with PC-3 prostate was below 0.01 µM in each case. The concentration for total growth inhibition (TGI) is 4.99 µM in the assay on ACHN renal; below 0.01 µM with SF-539 CNS; below 0.01 µM in the assay on A498 renal; 4.38 µM in the assay with HOP-92 NSCLC; 2.19 µM in the assay with HCC-2998 colon; 5.63 µM in the assay with T-47D breast. For the same compound, the concentration for total growth inhibition (TGI) with NCI-H460 lung was 5.37 µM; in the assay on HOP-62 NSCLC, 12.9 µM; in the assay with U251 CNS, above 32.2 µM; with PC-3 prostate it was 7.62 µM.
With `COc1cccc(-c2nc(-c3ccc(NC(=O)OC(C)C)cc3)[nH]c2-c2ccnc(Br)c2)c1`, the GI50 with ACHN renal was 2.7 µM; with SF-539 CNS, 1.53 µM; with A498 renal, 1.2 µM; with HOP-92 NSCLC it was 3.19 µM; in the assay on HCC-2998 colon, 2.71 µM; with T-47D breast, 2.08 µM. Moreover, the GI50 with NCI-H460 lung is 2.99 µM; in the assay on HOP-62 NSCLC, 2.92 µM; in the assay on U251 CNS, 1.69 µM; in the assay with PC-3 prostate, 2.62 µM. The TGI in the assay with ACHN renal is above 100 µM; in the assay on SF-539 CNS, 5.83 µM; with A498 renal, 6.29 µM; in the assay on HOP-92 NSCLC, 8.29 µM; in the assay on HCC-2998 colon, above 100 µM; in the assay on T-47D breast, 7.64 µM. The TGI with NCI-H460 lung, in the assay on HOP-62 NSCLC, with U251 CNS and in the assay on PC-3 prostate was above 100 µM in each case.
As for `O=C1CCCCN1c1ccccc1C#C/C=C\C#Cc1ccccc1C(F)(F)F`, the GI50 in the assay on ACHN renal is 2.67 µM; in the assay on SF-539 CNS, 1.44 µM; in the assay on A498 renal, 2.25 µM; in the assay on HOP-92 NSCLC, 10.7 µM; in the assay with HCC-2998 colon it was 0.951 µM; in the assay with T-47D breast, above 50 µM. Further, the GI50 was 2.16 µM in the assay with NCI-H460 lung, 0.899 µM in the assay with HOP-62 NSCLC, 1.52 µM with U251 CNS and 2.32 µM in the assay with PC-3 prostate. Also, the concentration for total growth inhibition (TGI) in the assay on ACHN renal is 14.7 µM; in the assay on SF-539 CNS it was 4.43 µM; in the assay on A498 renal, 28.4 µM; in the assay on HOP-92 NSCLC, 43.1 µM; in the assay on HCC-2998 colon, 2.5 µM; in the assay with T-47D breast, above 50 µM. Besides, the total growth inhibition concentration (TGI) was above 50 µM in the assay with NCI-H460 lung, 2.94 µM in the assay on HOP-62 NSCLC, 5.26 µM with U251 CNS and above 50 µM in the assay on PC-3 prostate.
Regarding `CCN(Cc1ccc(F)cc1)c1cc(Cl)c(CO)c(Cl)c1`, the GI50 in the assay on ACHN renal is 14.9 µM; with SF-539 CNS it was 16.2 µM; in the assay on A498 renal, 1.37 µM; in the assay with HOP-92 NSCLC, 3.61 µM; with HCC-2998 colon, 13.9 µM; in the assay with T-47D breast it was 7.47 µM. For the same compound, the GI50 is 11.8 µM in the assay with NCI-H460 lung, 14 µM in the assay on HOP-62 NSCLC, 10.5 µM in the assay on U251 CNS and 11.3 µM with PC-3 prostate. Moreover, the TGI in the assay on ACHN renal turned out to be 29.2 µM; in the assay with SF-539 CNS, 30.4 µM; in the assay on A498 renal, 6.39 µM; in the assay on HOP-92 NSCLC it was 18.1 µM; in the assay with HCC-2998 colon, 28.1 µM; with T-47D breast it was 26.5 µM. Moreover, the TGI in the assay on NCI-H460 lung worked out at 25.9 µM; in the assay with HOP-62 NSCLC, 27.2 µM; in the assay with U251 CNS it was 22.6 µM; in the assay on PC-3 prostate it was 24.7 µM.
`Cc1nnc(NC(=O)c2nc(S(=O)(=O)Cc3ccc(F)cc3)ncc2Cl)s1`: the GI50 with ACHN renal was 1.94 µM; in the assay with SF-539 CNS, 4.27 µM; with A498 renal it was 13.1 µM; in the assay with HOP-92 NSCLC, 1.66 µM; in the assay with HCC-2998 colon it was 13.4 µM; in the assay with T-47D breast, 2.45 µM. For the same compound, the GI50 in the assay with NCI-H460 lung was 17.4 µM; in the assay with HOP-62 NSCLC, 19.8 µM; in the assay with U251 CNS it was 4.12 µM; with PC-3 prostate, 10 µM. The TGI with ACHN renal was 3.68 µM; in the assay with SF-539 CNS, 15.4 µM; with A498 renal it was 26.4 µM; in the assay on HOP-92 NSCLC, 3.22 µM; with HCC-2998 colon, 29.4 µM; in the assay on T-47D breast it was 14.1 µM. Moreover, the concentration for total growth inhibition (TGI) in the assay with NCI-H460 lung is 35.1 µM; in the assay on HOP-62 NSCLC, 39.3 µM; with U251 CNS, 15.5 µM; in the assay with PC-3 prostate, 22.9 µM.
For the compound `CN1CC[C@@H](NC(=O)Nc2ccc(C#N)cc2)C[C@@H]1c1nc2ccccc2[nH]1`, the GI50 in the assay with ACHN renal is above 86.5 µM; with SF-539 CNS, above 100 µM; with A498 renal it was above 27.4 µM; with HOP-92 NSCLC, 35.9 µM; with HCC-2998 colon, above 41.3 µM; in the assay on T-47D breast it was above 70.4 µM. Besides, the GI50 in the assay on NCI-H460 lung, with HOP-62 NSCLC, in the assay on U251 CNS and in the assay on PC-3 prostate was above 100 µM each time. The TGI in the assay on ACHN renal was above 100 µM; in the assay with SF-539 CNS, above 100 µM; in the assay with A498 renal, above 65.7 µM; in the assay with HOP-92 NSCLC, above 100 µM; in the assay on HCC-2998 colon, above 56.4 µM; in the assay with T-47D breast, above 100 µM. Moreover, the TGI in the assay on NCI-H460 lung, in the assay on HOP-62 NSCLC, with U251 CNS and with PC-3 prostate was above 100 µM throughout.
As for `C=C1C(=O)O[C@H]2[C@H]1CC/C(COC(=O)NCc1ccc(Cn3c(=O)sn(-c4ccc(OC)cc4)c3=O)cc1)=C\CC[C@@]1(C)O[C@@H]21`, the GI50 was 1.73 µM in the assay with ACHN renal; 1.96 µM in the assay with SF-539 CNS; 5.65 µM in the assay on A498 renal; 1.61 µM in the assay on HOP-92 NSCLC; 10.4 µM in the assay on HCC-2998 colon; 1.86 µM in the assay on T-47D breast. The GI50 is 3.7 µM with NCI-H460 lung, 13.2 µM with HOP-62 NSCLC, 4.11 µM in the assay on U251 CNS and 2.19 µM with PC-3 prostate. For the same compound, the concentration for total growth inhibition (TGI) in the assay with ACHN renal stood at 3.27 µM; with SF-539 CNS, 4.15 µM; in the assay with A498 renal it was 17.8 µM; in the assay on HOP-92 NSCLC it was 3.47 µM; with HCC-2998 colon, 25.5 µM; in the assay on T-47D breast, 4.53 µM. In addition, the TGI was determined as 13.5 µM with NCI-H460 lung, 26.9 µM with HOP-62 NSCLC, 13.9 µM in the assay on U251 CNS and 5.27 µM with PC-3 prostate.

These data come from PubChem BioAssay (NCI).
